Results: ChEMBL document CHEMBL1143794, “Discovery of [7-(2,6-dichlorophenyl)-5-methylbenzo [1,2,4]triazin-3-yl]-[4-(2-pyrrolidin-1-ylethoxy)phenyl]amine--a potent, orally active Src kinase inhibitor with anti-tumor activity in preclinical assays” (Bioorg Med Chem Lett, 2007)
One block for each compound: values may come before it.

Assays:
[1] = target: Proto-oncogene tyrosine-protein kinase Src (Homo sapiens, UniProt P12931)
CT26 [2] = experiment: Antitumor activity against mouse CT26 cells; type: functional, cell-based
A549 [3] = experiment: Antitumor activity against A549 cells; type: functional, cell-based; settings: Homo sapiens
MCF7 = experiment: Antitumor activity against MCF7 cells; type: functional, cell-based; settings: Homo sapiens
Canis familiaris [4] = experiment: AUC in dog at 25 mg/kg, po; type: ADME, organism-based, Canis lupus familiaris, Plasma; parameters: dose 25 mg/kg, route oral; settings: in vivo
MDA-MB-231 = experiment: Antitumor activity against MDA-MB-231 cells; type: functional, cell-based; settings: Homo sapiens
[5] = Bioavailability in rat at 25 mg/kg, po; type: ADME, organism-based; settings: in vivo
[6] = Clearance in rat at 25 mg/kg, po; type: ADME, organism-based; parameters: dose 25 mg/kg, route oral; settings: in vivo
[7] = Half life in dog at 25 mg/kg, po; type: ADME, organism-based, Canis lupus familiaris; parameters: dose 25 mg/kg, route oral; settings: in vivo
[8] = Clearance in dog at 25 mg/kg, po; type: ADME, organism-based, Canis lupus familiaris; parameters: dose 25 mg/kg, route oral; settings: in vivo
HT-29 = experiment: Antitumor activity against HT29 cells; type: functional, cell-based; settings: Homo sapiens
[9] = Half life in mouse at 25 mg/kg, po; type: ADME, organism-based; parameters: dose 25 mg/kg, route oral; settings: in vivo
[10] = Cmax in rat at 25 mg/kg, po; type: ADME, organism-based; parameters: dose 25 mg/kg, route oral; settings: in vivo
[11] = Bioavailability in dog at 25 mg/kg, po; type: ADME, organism-based, Canis lupus familiaris; settings: in vivo
[12] = Bioavailability in mouse at 25 mg/kg, po; type: ADME, organism-based; settings: in vivo
Cytochrome P450 2D6 = Cytochrome P450 2D6 (Homo sapiens, UniProt P10635); experiment: Inhibition of CYP2D6; type: ADME
[13] = target: Platelet-derived growth factor receptor beta (Homo sapiens, UniProt P09619); experiment: Inhibition of PDGFRbeta
[14] = Clearance in mouse at 25 mg/kg, po; type: ADME, organism-based; parameters: dose 25 mg/kg, route oral; settings: in vivo
MOLT-4 = experiment: Antitumor activity against Molt4 cells; type: functional, cell-based; settings: Homo sapiens
Cytochrome P450 3A4 = Cytochrome P450 3A4 (Homo sapiens, UniProt P08684); experiment: Inhibition of CYP3A4; type: ADME
Cytochrome P450 2C19 = Cytochrome P450 2C19 (Homo sapiens, UniProt P33261); experiment: Inhibition of CYP2C19; type: ADME
Cytochrome P450 2C9 = Cytochrome P450 2C9 (Homo sapiens, UniProt P11712); experiment: Inhibition of CYP2C9; type: ADME
K562 = experiment: Antitumor activity against K562 cells; type: functional, cell-based; settings: Homo sapiens
Canis familiaris [15] = experiment: Volume of distribution in dog at 25 mg/kg, po; type: ADME, organism-based, Canis lupus familiaris; parameters: dose 25 mg/kg, route oral; settings: in vivo
[16] = Cmax in dog at 25 mg/kg, po; type: ADME, organism-based, Canis lupus familiaris; parameters: dose 25 mg/kg, route oral; settings: in vivo
Rattus norvegicus [17] = experiment: AUC in rat at 25 mg/kg, po; type: ADME, organism-based, Plasma; parameters: dose 25 mg/kg, route oral; settings: in vivo
[18] = Half life in rat at 25 mg/kg, po; type: ADME, organism-based; parameters: dose 25 mg/kg, route oral; settings: in vivo
[19] = Cmax in mouse at 25 mg/kg, po; type: ADME, organism-based; parameters: dose 25 mg/kg, route oral; settings: in vivo
[20] = Tmax in rat at 25 mg/kg, po; type: ADME, organism-based; parameters: dose 25 mg/kg, route oral; settings: in vivo
A549 [21] = experiment: Reduction of tumor burden in A549 cells xenografted in nu/nu mouse at 40 mg/kg, ip relative to control; type: functional; parameters: scale not given: the % may be the effect or the level left; settings: route intraperitoneal
Mus musculus [22] = experiment: AUC in mouse at 25 mg/kg, po; type: ADME, organism-based, Plasma; parameters: dose 25 mg/kg, route oral; settings: in vivo
COLO 205 = experiment: Antitumor activity against Colo205 cells; type: functional, cell-based; settings: Homo sapiens
Rattus norvegicus [23] = experiment: Volume of distribution in rat at 25 mg/kg, po; type: ADME, organism-based; parameters: dose 25 mg/kg, route oral; settings: in vivo
CT26 [24] = experiment: Reduction of tumor volume in CT26 xenografted in BALB/c mouse at 50 mg/kg, ip relative to control; type: functional; parameters: scale not given: the % may be the effect or the level left; settings: route intraperitoneal
Cytochrome P450 1A2 = target: T1, Cytochrome P450 1A2 (Homo sapiens, UniProt P05177); experiment: Inhibition of CYP1A2; type: ADME
T1 sequence (P05177 whole entry): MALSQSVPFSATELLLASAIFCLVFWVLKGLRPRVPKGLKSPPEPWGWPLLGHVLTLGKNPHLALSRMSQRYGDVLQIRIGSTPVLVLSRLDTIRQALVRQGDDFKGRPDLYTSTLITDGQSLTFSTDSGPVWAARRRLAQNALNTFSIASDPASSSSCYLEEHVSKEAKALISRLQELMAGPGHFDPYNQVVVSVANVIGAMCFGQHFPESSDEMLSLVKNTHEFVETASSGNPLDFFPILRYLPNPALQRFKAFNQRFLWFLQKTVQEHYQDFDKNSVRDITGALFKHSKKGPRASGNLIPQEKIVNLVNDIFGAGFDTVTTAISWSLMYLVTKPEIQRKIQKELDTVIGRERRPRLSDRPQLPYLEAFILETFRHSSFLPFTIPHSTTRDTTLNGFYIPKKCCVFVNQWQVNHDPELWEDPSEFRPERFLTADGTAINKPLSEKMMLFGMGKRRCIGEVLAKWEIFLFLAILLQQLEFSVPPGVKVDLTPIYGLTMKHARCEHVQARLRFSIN

[25] = Tmax in dog at 25 mg/kg, po; type: ADME, organism-based, Canis lupus familiaris; parameters: dose 25 mg/kg, route oral; settings: in vivo
Mus musculus [26] = experiment: Volume of distribution in mouse at 25 mg/kg, po; type: ADME, organism-based; parameters: dose 25 mg/kg, route oral; settings: in vivo
[27] = Tmax in mouse at 25 mg/kg, po; type: ADME, organism-based; parameters: dose 25 mg/kg, route oral; settings: in vivo

Chain of Proto-oncogene tyrosine-protein kinase Src (P12931 2-536 limits assumed): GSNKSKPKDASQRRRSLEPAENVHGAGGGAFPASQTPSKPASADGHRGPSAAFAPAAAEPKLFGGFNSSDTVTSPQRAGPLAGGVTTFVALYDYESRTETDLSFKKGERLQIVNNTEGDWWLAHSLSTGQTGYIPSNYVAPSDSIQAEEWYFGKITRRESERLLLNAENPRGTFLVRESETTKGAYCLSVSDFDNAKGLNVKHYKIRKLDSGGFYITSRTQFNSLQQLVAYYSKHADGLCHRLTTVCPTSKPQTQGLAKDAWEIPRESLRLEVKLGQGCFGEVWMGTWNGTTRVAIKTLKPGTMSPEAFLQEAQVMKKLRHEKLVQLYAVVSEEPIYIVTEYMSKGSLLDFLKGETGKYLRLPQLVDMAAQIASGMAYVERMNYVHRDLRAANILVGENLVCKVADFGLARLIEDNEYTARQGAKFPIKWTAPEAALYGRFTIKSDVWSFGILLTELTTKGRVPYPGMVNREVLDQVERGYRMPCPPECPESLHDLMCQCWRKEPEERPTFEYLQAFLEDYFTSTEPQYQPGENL
Chain of Cytochrome P450 3A4 (P08684 whole entry): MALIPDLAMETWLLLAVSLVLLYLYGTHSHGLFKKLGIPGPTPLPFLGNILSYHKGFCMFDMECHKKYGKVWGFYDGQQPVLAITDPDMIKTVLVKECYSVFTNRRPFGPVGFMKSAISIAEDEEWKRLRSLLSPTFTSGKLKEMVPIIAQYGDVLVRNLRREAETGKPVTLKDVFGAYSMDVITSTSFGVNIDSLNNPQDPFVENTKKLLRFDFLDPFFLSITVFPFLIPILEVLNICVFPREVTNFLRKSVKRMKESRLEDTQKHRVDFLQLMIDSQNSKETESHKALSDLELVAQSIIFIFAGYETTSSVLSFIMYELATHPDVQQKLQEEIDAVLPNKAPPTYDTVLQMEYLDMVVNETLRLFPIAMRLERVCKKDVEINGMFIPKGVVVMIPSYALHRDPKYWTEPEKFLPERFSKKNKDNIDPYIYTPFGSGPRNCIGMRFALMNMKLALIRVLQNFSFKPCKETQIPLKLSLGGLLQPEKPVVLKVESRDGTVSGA
Chain of Cytochrome P450 2C19 (P33261 whole entry): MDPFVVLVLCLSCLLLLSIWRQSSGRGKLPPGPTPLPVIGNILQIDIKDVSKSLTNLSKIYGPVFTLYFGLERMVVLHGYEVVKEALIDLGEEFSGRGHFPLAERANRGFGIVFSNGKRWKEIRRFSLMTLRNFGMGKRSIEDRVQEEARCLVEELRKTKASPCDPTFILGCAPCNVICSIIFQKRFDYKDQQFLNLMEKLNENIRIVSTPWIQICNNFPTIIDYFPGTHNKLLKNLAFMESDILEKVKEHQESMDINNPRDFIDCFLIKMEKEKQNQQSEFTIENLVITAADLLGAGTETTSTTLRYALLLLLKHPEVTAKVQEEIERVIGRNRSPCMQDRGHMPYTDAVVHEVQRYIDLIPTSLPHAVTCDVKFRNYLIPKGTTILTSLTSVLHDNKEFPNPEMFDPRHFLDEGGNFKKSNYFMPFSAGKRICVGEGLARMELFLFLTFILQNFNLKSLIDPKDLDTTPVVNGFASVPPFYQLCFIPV
Chain of Cytochrome P450 2D6 (P10635 whole entry): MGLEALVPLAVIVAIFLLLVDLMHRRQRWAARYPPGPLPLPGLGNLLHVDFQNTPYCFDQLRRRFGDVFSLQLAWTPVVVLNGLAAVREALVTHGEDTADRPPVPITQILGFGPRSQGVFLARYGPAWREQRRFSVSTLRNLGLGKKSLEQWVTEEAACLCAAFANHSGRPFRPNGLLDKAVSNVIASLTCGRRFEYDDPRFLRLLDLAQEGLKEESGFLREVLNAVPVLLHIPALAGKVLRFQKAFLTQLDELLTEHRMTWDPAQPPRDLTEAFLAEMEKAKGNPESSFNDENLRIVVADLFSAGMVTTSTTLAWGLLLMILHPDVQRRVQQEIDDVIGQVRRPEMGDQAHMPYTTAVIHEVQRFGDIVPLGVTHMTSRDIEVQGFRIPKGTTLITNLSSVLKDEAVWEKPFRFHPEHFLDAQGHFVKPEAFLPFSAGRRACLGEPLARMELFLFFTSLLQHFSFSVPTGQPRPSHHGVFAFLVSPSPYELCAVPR
Chain of Cytochrome P450 2C9 (P11712 whole entry): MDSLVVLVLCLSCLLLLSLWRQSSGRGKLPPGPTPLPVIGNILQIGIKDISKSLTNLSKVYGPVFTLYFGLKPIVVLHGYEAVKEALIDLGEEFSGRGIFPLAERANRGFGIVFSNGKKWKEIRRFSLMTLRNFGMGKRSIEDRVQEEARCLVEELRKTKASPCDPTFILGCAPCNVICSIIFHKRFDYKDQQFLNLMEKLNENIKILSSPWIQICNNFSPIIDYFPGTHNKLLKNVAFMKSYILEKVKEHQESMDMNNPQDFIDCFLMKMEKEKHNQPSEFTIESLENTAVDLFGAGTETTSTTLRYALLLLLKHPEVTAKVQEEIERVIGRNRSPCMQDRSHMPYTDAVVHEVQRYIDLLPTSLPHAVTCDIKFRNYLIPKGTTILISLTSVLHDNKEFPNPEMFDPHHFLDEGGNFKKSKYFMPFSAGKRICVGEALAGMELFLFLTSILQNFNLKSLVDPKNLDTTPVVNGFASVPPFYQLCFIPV
Chain of Platelet-derived growth factor receptor beta (P09619 whole entry): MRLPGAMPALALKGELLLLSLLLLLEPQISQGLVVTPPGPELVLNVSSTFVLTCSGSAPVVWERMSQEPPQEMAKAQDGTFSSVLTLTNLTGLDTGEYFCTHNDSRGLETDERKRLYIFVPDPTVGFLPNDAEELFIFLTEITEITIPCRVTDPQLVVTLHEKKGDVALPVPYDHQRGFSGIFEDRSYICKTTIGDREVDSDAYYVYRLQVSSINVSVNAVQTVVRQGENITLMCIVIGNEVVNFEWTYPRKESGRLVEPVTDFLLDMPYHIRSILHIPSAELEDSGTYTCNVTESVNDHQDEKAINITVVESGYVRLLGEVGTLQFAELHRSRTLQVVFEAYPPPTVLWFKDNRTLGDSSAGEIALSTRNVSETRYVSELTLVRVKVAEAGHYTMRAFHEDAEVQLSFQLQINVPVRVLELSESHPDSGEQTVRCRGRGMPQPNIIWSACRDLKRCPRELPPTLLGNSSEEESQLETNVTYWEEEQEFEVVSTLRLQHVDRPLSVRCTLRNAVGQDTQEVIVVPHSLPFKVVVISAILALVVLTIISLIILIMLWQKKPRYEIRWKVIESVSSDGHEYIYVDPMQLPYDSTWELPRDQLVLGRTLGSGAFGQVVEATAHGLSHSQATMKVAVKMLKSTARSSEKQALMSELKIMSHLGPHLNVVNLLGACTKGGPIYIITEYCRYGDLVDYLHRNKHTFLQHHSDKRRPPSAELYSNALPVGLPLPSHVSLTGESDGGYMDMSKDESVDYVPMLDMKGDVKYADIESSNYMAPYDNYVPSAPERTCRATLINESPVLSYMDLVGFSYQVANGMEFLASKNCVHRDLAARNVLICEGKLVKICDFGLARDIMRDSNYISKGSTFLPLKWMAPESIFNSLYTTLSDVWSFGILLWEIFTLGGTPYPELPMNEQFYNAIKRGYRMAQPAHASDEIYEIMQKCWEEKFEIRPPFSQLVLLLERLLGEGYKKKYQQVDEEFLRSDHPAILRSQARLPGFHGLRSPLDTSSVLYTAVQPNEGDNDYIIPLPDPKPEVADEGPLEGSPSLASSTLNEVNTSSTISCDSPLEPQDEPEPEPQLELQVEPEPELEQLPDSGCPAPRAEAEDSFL

IC50 [1]: 18 nM
SMILES: Cc1cccc(C)c1-c1cc(C)c2nc(Nc3cccc(N(CCN4CCCC4)C(=O)c4ccccc4)c3)nnc2c1

IC50 (CT26 [2]): 6700 nM
IC50 [1]: 15 nM
SMILES: Cc1cccc(C)c1-c1cc(C)c2nc(Nc3ccc(C(=O)NN4CCN(C)CC4)cc3)nnc2c1

IC50 (CT26 [2]): 2400 nM
SMILES: Cc1cccc(C)c1-c1cc(C)c2nc(Nc3ccnc(OCCN4CCCC4)c3)nnc2c1

IC50 [1]: 208 nM
SMILES: COc1cc2c(cc1O)CCN[C@]21CS[C@H]2c3c(OC(C)=O)c(C)c4c(c3[C@@H](COC1=O)N1[C@@H]2[C@H]2c3c(cc(C)c(OC)c3O)C[C@@H]([C@@H]1O)N2C)OCO4

IC50 [1]: 21 nM
SMILES: Cc1cccc(C)c1-c1cc(NS(C)(=O)=O)c2nc(Nc3ccc(OCCN4CCCC4)cc3)nnc2c1

IC50 [1]: 353 nM
SMILES: Cc1ccc(CN)cc1-c1cc(C)c2nc(Nc3ccc(S(=O)(=O)NCCN4CCCC4)cc3)nnc2c1

IC50 (A549 [3]): 900 nM
IC50 (MCF7): 85 nM
AUC (Canis familiaris [4]): 8680 ng·h/mL
IC50 (MDA-MB-231): 240 nM
bioavailability [5]: 35%
CL/F [6]: 12.7 mL/min/kg
half-life [7]: 13 h
CL/F [8]: 14.5 mL/min/kg
IC50 (HT-29): > 5000 nM
half-life [9]: 8 h
Cmax [10]: 348 ng/mL
bioavailability [11]: 42%
bioavailability [12]: 74%
IC50 (Cytochrome P450 2D6): 33000 nM
Ki [13]: 2090 nM
CL/F [14]: 12.7 mL/min/kg
IC50 (MOLT-4): 250 nM
IC50 (Cytochrome P450 3A4): 62000 nM
IC50 (Cytochrome P450 2C19): 12000 nM
IC50 (Cytochrome P450 2C9): > 100000 nM
IC50 (K562): 215 nM
Vdss (Canis familiaris [15]): 18.7 L/kg
Cmax [16]: 679 ng/mL
AUC (Rattus norvegicus [17]): 8010 ng·h/mL
half-life [18]: 4.6 h
Cmax [19]: 415 ng/mL
IC50 (CT26 [2]): 750 nM
Tmax [20]: 8.8 h
AUC (Mus musculus [22]): 15300 ng·h/mL
IC50 (COLO 205): 2500 nM
Vdss (Rattus norvegicus [23]): 9.4 L/kg
IC50 (Cytochrome P450 1A2): > 100000 nM
Tmax [25]: 4 h
Vdss (Mus musculus [26]): 16.1 L/kg
Tmax [27]: 8 h
SMILES: Cc1cc(-c2c(Cl)cccc2Cl)cc2nnc(Nc3ccc(OCCN4CCCC4)cc3)nc12
Activity (A549 [21]): 86%
Activity (CT26 [24]): 60%

IC50 [1]: > 10000 nM
SMILES: Cc1cc2nc(Nc3ccc(S(=O)(=O)NCCN4CCCC4)cc3)nnc2cc1Br

IC50 [1]: 14 nM
SMILES: CC(=O)Nc1cc(-c2c(C)cccc2C)cc2nnc(Nc3ccc(OCCN4CCCC4)cc3)nc12

IC50 (CT26 [2]): 2400 nM
IC50 [1]: 16 nM
SMILES: Cc1cccc(C)c1-c1cc(C)c2nc(Nc3ccc(N(CCN4CCCC4)C(=O)c4ccccc4)cc3)nnc2c1

IC50 [1]: 13 nM
SMILES: Cc1cccc(C)c1-c1cc(C)c2nc(Nc3ccc(C(=O)NN4CCNCC4)cc3)nnc2c1

IC50 [1]: 778 nM
SMILES: COc1ccc(Cl)c(-c2cc(C)c3nc(Nc4ccc(OCCN5CCCC5)cc4)nnc3c2)c1

IC50 (CT26 [2]): 2500 nM
SMILES: CCN(CC)CCOc1cccc(Nc2nnc3cc(-c4c(C)cccc4C)cc(C)c3n2)c1

IC50 [1]: 10 nM
SMILES: Cc1cccc(C)c1-c1cc(N)c2nc(Nc3ccc(OCCN4CCCC4)cc3)nnc2c1

IC50 [1]: 92 nM
SMILES: Cc1cc2nc(Nc3ccc(S(=O)(=O)NCCN4CCCC4)cc3)nnc2cc1N

IC50 [1]: 10 nM
SMILES: CNc1cc(-c2c(C)cccc2C)cc2nnc(Nc3ccc(OCCN4CCCC4)cc3)nc12

IC50 (CT26 [2]): 6600 nM
SMILES: Cc1cccc(C)c1-c1cc(C)c2nc(Nc3ccc(OCCN4CCN(C)CC4)cc3)nnc2c1

IC50 [1]: 30 nM
SMILES: Clc1cccc(Cl)c1-c1ccc2nc(Nc3ccc(OCCN4CCCC4)cc3)nnc2c1

AUC (Canis familiaris [4]): 9680 ng·h/mL
bioavailability [5]: 20%
CL/F [6]: 9.2 mL/min/kg
half-life [7]: 19 h
CL/F [8]: 5.1 mL/min/kg
half-life [9]: 9.5 h
Cmax [10]: 419 ng/mL
bioavailability [11]: 68%
bioavailability [12]: 86%
IC50 (Cytochrome P450 2D6): 25000 nM
CL/F [14]: 18.8 mL/min/kg
IC50 (Cytochrome P450 3A4): 42000 nM
IC50 (Cytochrome P450 2C19): 12000 nM
IC50 (Cytochrome P450 2C9): > 100000 nM
Vdss (Canis familiaris [15]): 8.6 L/kg
Cmax [16]: 5240 ng/mL
AUC (Rattus norvegicus [17]): 9570 ng·h/mL
half-life [18]: 5.6 h
Cmax [19]: 790 ng/mL
IC50 (CT26 [2]): 2300 nM
Tmax [20]: 6 h
AUC (Mus musculus [22]): 19100 ng·h/mL
Vdss (Rattus norvegicus [23]): 7.2 L/kg
IC50 (Cytochrome P450 1A2): > 100000 nM
Tmax [25]: 1.5 h
Vdss (Mus musculus [26]): 11.4 L/kg
Tmax [27]: 6 h
SMILES: Cc1cccc(C)c1-c1cc(C)c2nc(Nc3ccc(OCCN4CCCC4)cc3)nnc2c1

IC50 [1]: > 10000 nM
SMILES: Cc1ccc2nnc(Nc3ccc(S(=O)(=O)NCCN4CCCC4)cc3)nc2c1

IC50 [1]: > 10000 nM
SMILES: c1ccc2nc(Nc3ccc(OCCN4CCCC4)cc3)nnc2c1

IC50 [1]: 204 nM
SMILES: Cc1cnc(F)cc1-c1cc(C)c2nc(Nc3ccc(OCCN4CCCC4)cc3)nnc2c1
